As a reminder, the bioavailability is dose-corrected exposure relative to a reference, in per cent. The clearance is the volume of plasma or blood freed of the substance per unit of time. In general, IC50 refers to the point on the concentration scale where inhibition reaches its midpoint.

Like-named read-outs stand apart in the source and are kept apart here.

Data set [1] in a line: Pharmacokinetic study on ICR mice (plasma, LC-MS/MS). The settings on record: male, mouse; for bioavailability: 5 mg/kg oral intake vs 1 mg/kg injection, read-out: Bioavailability F(%); for AUC(0-inf): read-out: Area under curve AUC0-∞; for Cmax: read-out: Blood concentration Cmax; for half-life: read-out: Half-life T1/2(h) (converted); for clearance: read-out: Clearance rate. The data set is classed as in vivo. How it is done: ICR mice, male, 29.0 g to 33.8g, purchased from Beijing Charles River Laboratory Animal Technology Co., Ltd.
Intravenous injection group: an appropriate amount of drug was weighed, and added with mixed solvent (DMA: 30% Solutol HS-15: Saline = 10: 10: 80 (v/v/v)) to prepare the drug with a final concentration of 0.2 mg/mL.
Oral gavage administration group: an appropriate amount of drug was weighed, added with an appropriate amount of sodium carboxymethyl cellulose (CMC-Na, containing 0.5% Tween 80), vortex shaked, and ultrasonically prepared into […] suspension.
For ICR mice, each compound to be tested was divided into an intravenous injection group (9 mice in each group) and an intragastric group (9 mice in each group). The ICR mice were fasted overnight and then administered by orbital intravenous injection (administration dose of 1 mg/kg, and administration volume of 5 mL/kg) and administered by intragastric injection (administration dose of 5 mg/kg, and administration volume of 10 mL/kg), and ate 4 hours after administration.
About 0.2 mL of blood was collected via jugular vein before administration and 0.083 hour, 0.25 hour, 0.5 hour, 1 hour, 2 hours, 4 hours, 8 hours, 12 hours and 24 hours after administration, and heparin sodium was used for anticoagulation. The collected blood samples were placed on ice, and plasma was separated by centrifugation (centrifugation condition: 1500 g, 10 minutes). The collected plasma was stored at-40°C to -20°C before analysis.
LC-MS/MS was used to determine the contents of different compounds to be tested in mouse plasma after intravenous injection and intragastric administration.
The pharmacokinetic parameters of the compounds of the present invention and the positive control can be seen in Table 8. Table 8 Results of pharmacokinetic parameters

A further data set has as its system BAF3 LMNA-TRKA^G667C. The data set is described as follows: Cell proliferation assay (CellTiter-Glo), BAF3 LMNA-TRKA G667C. The data set is classed as cell-based. The settings on record: Mus musculus, 72 hours. As for the experimental part:
(§1) The following method was used to determine the effects of the compounds of the present invention on cell proliferation. BAF3 cells were purchased from National Infrastructure of Cell Line Resource (Beijing Headquarter). For TRKA, BAF3 cells were used to construct […] stable cell lines of BAF3 LMNA-TRKA^WT and BAF3 LMNA-TRKA^G667C.The above […] cell lines were used to determine the inhibition of the compounds on cell activities. The cells were cultured in an RPMI 1640 medium containing 10% fetal bovine serum, 100 U penicillin and 100 µg/mL streptomycin. The cells were cultured in a 5% CO2 incubator at 37°C. The activities of the cells were determined by CellTiter-Glo® Luminescent Cell Viability Assay kit (Promega, article number: G7573).
(§2) The experimental methods were operated according to the steps in the kit instruction, and were briefly described as follows: a test compound was first dissolved in DMSO to prepare a storage solution, and then diluted in gradient with the corresponding cell culture medium to prepare a test sample. A final concentration of the compound ranged from 1 µM to 0.15 nM. […] After the culture, 50 µL of CellTiter-Glo detection solution was added to each well, shaken for 5 minutes, and then stood for 10 minutes, and the luminescence values of each well were read on the microplate reader using a Luminance mode. […]
On the technique in general: Cellular ATP, detected with luciferase, serves as a proxy for viable cell number.

The test system of another data set is BAF3 LMNA-TRKA^G595R. The data set is described as follows: Cell proliferation assay (CellTiter-Glo), BAF3 LMNA-TRKA G595R. The settings on record: Mus musculus, 72 hours. The data set is classed as cell-based.
Another data set has as its system BAF3 LMNA-TRKA^WT. The data set is described as follows: Cell proliferation assay (CellTiter-Glo), BAF3 LMNA-TRKA WT. In kind it is cell-based. To be noted: Mus musculus, 72 hours. As for the experimental part:
as §1, §2

[2] abbreviates: intravenous, 1 mg/kg, injection.

Procedure for BAF3 LMNA-TRKA^G595R: The following method was used to determine the effects of the compounds of the present invention on cell proliferation. […] For TRKA, BAF3 LMNA-TRKA^G595R stably transformed cell line was constructed by BAF3 cells. The above cell line was used to determine the inhibition of the compounds on cell activity. […] The cells were cultured in a 5% CO2 incubator at 37°C. The activity of the cells were determined by CellTiter-Glo® Luminescent Cell Viability Assay kit (Promega, article number: G7573).
The experimental methods were operated according to the steps in the kit instruction, and were briefly described as follows: a test compound was first dissolved in DMSO to prepare a storage solution, and then diluted in gradient with the corresponding cell culture medium to prepare a test sample. […] Cells in logarithmic growth phase were inoculated into a 96-well cell culture plate at a suitable density, and the cells were cultured in a 5% CO2 incubator at 37°C overnight. After adding the sample of the test compound, the cells were continuously cultured for 72 hours. After the culture, 50 µL of CellTiter-Glo detection solution was added to each well, shaken for 5 minutes, and then stood for 10 minutes, and the luminescence values of each well were read on the microplate reader using a Luminance mode.

In the case of `C[C@H]1Nc2ccn3ncc(c3n2)C(=O)NC[C@@]2(C)Cc3cc(F)cc1c3O2` [Example 8, (3R,11R)-6-fluoro-3,11-dimethyl-10-oxa-2,13,17,1 8,21-pentaazapentacyclo[13.5.2.1^8,11.0^4,9.0^18,22]tric osa-1(21),4,6,8,15(22),16,19-heptaen-14-one], the bioavailability in data set [1] was 53%. Moreover, in data set [1] (5 mg/kg, oral intake), the AUC(0-inf) stood at 5620 ng·h/mL, the Cmax was 2260 ng/mL and the half-life is 1.54 h. In data set [1] (setting [2]), the AUC(0-inf) came to 2100 ng·h/mL, the clearance was 7.9 mL/min/kg and the half-life is 1.47 h. In the data set with BAF3 LMNA-TRKA^G667C, this compound registered an IC50 of 77.6 nM. Besides, in the data set on BAF3 LMNA-TRKA^G595R, it took 3.1 nM to reach half-maximal inhibition (IC50). The IC50 in the data set on BAF3 LMNA-TRKA^WT was 1.5 nM.
For `C[C@H]1Nc2ccn3nc(N)c(c3n2)C(=O)NC[C@@]2(C)Cc3cc(F)cc1c3O2` [Example 25, (3R,11R)-16-amino-6-fluoro-3,11-dimethyl-10-oxa-2,13,17,18,21-pentaazapentacyclo[13.5.2.1^8,11.0^4,9. 0^18,22]tricosa-1(21),4,6,8,15(22),16,19-heptaen-14-one], in data set [1], the bioavailability came out at 47%. Further, the AUC(0-inf) was 4850 ng·h/mL in data set [1] (5 mg/kg, oral intake) and 2060 ng·h/mL in data set [1] (setting [2]). In data set [1] (5 mg/kg, oral intake), the Cmax turned out to be 1050 ng/mL. Further, the half-life in data set [1] (5 mg/kg, oral intake) was 3.15 h; in data set [1] (setting [2]), 1.54 h. Moreover, the clearance in data set [1] (setting [2]) was 8.11 mL/min/kg. Also, the half-inhibitory concentration (IC50) in the data set with BAF3 LMNA-TRKA^G667C was determined as 46.7 nM; in the data set with BAF3 LMNA-TRKA^G595R it was 2.2 nM; in the data set on BAF3 LMNA-TRKA^WT, 1.2 nM.

These data come from patent EP3974434B1, “MACROLIDE DERIVATIVES, PREPARATION METHOD AND APPLICATION THEREOF” (Zhejiang Hisun Pharmaceutical Co., Ltd., priority 2019, dated 2020).
